Row | Compound | melting point
1 | CC(C)c1c(C(=O)Nc2ccccc2)c(-c2ccccc2)c(-c2ccc(F)cc2)n1CCC(O)CC(O)CC(=O)O (stereo not given) | 160 °C
2 | CC1CC(=O)C(C)(C)C1 (stereo not given) | -40.6 °C
3 | CC(=O)OC[C@@H](OC(C)=O)[C@H](OC(C)=O)[C@H](OC(C)=O)[C@@H](OC(C)=O)C(=O)CBr | 123 to 125 °C
4 | CCN1C(=O)OC(C)(C)C1=O | 76.5 °C
5 | Cc1ccc(C2C(C#N)=C(N)Oc3c2c(C(F)(F)F)nn3-c2ccccc2)cc1 (stereo not given) | 205 °C
6 | COC(=O)c1cccnc1N | 84 to 86 °C
7 | Cc1c(C(=O)c2ccccc2C(=O)O)sc2ccccc12 | 181 to 183 °C
8 | CC1(C)C(C=C(Cl)Cl)C1C(=O)OC(C#N)c1ccc(F)c(Oc2ccccc2)c1 (stereo not given) | 93.5 °C
9 | c1cc2c3c(cccc3c1)-c1nccnc1-2 | 146 °C
10 | O=Cc1cccc(N2CCCC2)n1 | 63 to 65 °C
11 | ClCc1noc(-c2cccs2)n1 | 67 to 68 °C
12 | COS(=O)(=O)c1cc([N+](=O)[O-])ccc1C=Cc1ccc([N+](=O)[O-])cc1S(=O)(=O)OC | 228 °C
13 | BrCc1cccc2nsnc12 | 89 to 92 °C
14 | COc1ccccc1C1CNCCN1 (stereo not given) | 80 °C
15 | CC1OC(OC2C=C3CCC4C(CCC5(C)C(c6ccc(=O)oc6)CCC45O)C3(C)CC2)C(O)C(O)C1O (stereo not given) | 221 °C
16 | CN(C)c1ccc(N=C2C=CC(=O)C=C2)cc1 | 134 °C
17 | COc1cc(C=CC(=O)O)ccc1OCc1ccccc1 | 192 °C
18 | OCc1cccc2cccc(Br)c12 | 89 to 90 °C
19 | CC(CCC(=O)O)C1CCC2C3CC(O)C4=CC(O)CCC4(C)C3CCC12C (stereo not given) | 200 to 201 °C
20 | O=[N+]([O-])c1ccc(N2CCOCC2)cc1 | 152 °C
21 | NC(=O)c1sc(Nc2ccccc2)nc1N | 205 °C
22 | CC(=O)C1CCC2C3CCC4=CC(=O)CCC4(C)C3C(=O)CC12C (stereo not given) | 172 °C
23 | CCCCCCCCCC1(C)N=C(c2ccccc2)C=[N+]1[O-] (stereo not given) | 43 to 46 °C
24 | COc1ccc2c(c1OC)C(=O)OC2C1c2c(cc3c(c2OC)OCO3)CCN1C (stereo not given) | 176 °C
25 | C1CC2CC1C1OC21 (stereo not given) | 123 °C

Row | Compound | melting point
26 | ON=C(CBr)c1ccc(F)cc1 | 84 to 90 °C
27 | c1ccc(CCCCc2ccccc2)cc1 | 52.5 °C
28 | Cc1ccccc1NN=C1C(=O)NC(=S)NC1=O | 242 °C
29 | Cc1cc(Cl)cc(Cl)c1CN | 54 °C
30 | NC(CCN(Cc1ccco1)S(=O)(=O)c1ccc(Cl)cc1)=NO | 115 to 117 °C
31 | CC(Oc1ccc(Oc2ncc(C(F)(F)F)cc2Cl)cc1)C(=O)O (stereo not given) | 108 °C
32 | CCOC(=O)/C(C#N)=C/c1ccc(-c2ccc(Br)cc2)o1 | 167 °C
33 | O=C(O)c1ccc(-n2cccn2)cc1 | 269 to 270 °C
34 | CC(=O)c1cnc2ccccc2n1 | 78 °C
35 | CCOC(=O)c1nn(-c2ccc(C)cc2)c(C)c1C(=O)c1noc(-c2ccc(C)cc2)c1S(=O)(=O)c1ccccc1 | 180 °C
36 | COc1ccc(C(=O)c2ccccc2F)cc1[N+](=O)[O-] | 133 to 139 °C
37 | O=C1CCc2ccccc2C1 | 18 °C
38 | COC(=O)c1ccc(Br)c(C)c1 | 42 °C
39 | CC(C(=O)O)C(C)C(=O)O (stereo not given) | 120 °C
40 | O=S(=O)(CS(=O)(=O)c1ccccc1)c1ccccc1 | 117 to 123 °C
41 | CCS(=O)(=O)Oc1ccc2c(c1)C(C)(C)CO2 | 30 °C
42 | CC1=C(CCO)SC2=Nc3nc(C)ncc3CN21 | 229 °C
43 | N#C/C(=C\c1c(Cl)cccc1Cl)c1nc(-c2ccccc2)cs1 | 96 °C
44 | Cc1cc(Br)ccc1N | 59.5 °C
45 | O=C(c1ccccc1)C(Br)C(Br)c1ccccc1 (stereo not given) | 156 °C
46 | CC(=O)c1c(F)ccc(F)c1C(=O)O | 86 °C
47 | COc1cc(F)c(F)cc1OC | 40 °C
48 | O=C(c1ccc([N+](=O)[O-])cc1)c1noc(-c2ccc(Br)cc2)c1S(=O)(=O)c1ccccc1 | 178 °C
49 | O=C(O)c1ccccc1C(c1ccc(O)cc1)c1ccc(O)cc1 | 238 °C
50 | Cc1cccc(C)c1C#N | 90 °C

Row | Compound | melting point
51 | Cc1noc(-c2ccc(CBr)cc2)n1 | 114 to 116 °C
52 | CCCCCCCCCCCCCCCCC(CCC)c1ccccc1 (stereo not given) | 31.4 °C
53 | Nc1ccccc1S | 26 °C
54 | O=C(C=Cc1ccc(-c2ccc(Br)cc2)o1)c1ccco1 | 164 to 165 °C
55 | Cc1c(C)c(C)c2c(c1C)C(=O)CC2C(=O)O (stereo not given) | 214 °C
56 | Clc1ccc(-c2cc3ccccc3[nH]2)cc1 | 206 °C
57 | N#Cc1ccc(CC(=O)O)cc1 | 151 °C
58 | CCCCCCOCCOCCO | -40 °C
59 | C#CCCCCCCCCCC | -19 °C
60 | CC(=O)NCCS | 6.5 °C
61 | CCOC(=O)C1=C(C)NC(=O)NC1c1ccc(Cl)cc1 (stereo not given) | 185 °C
62 | Cn1nc(-c2cccs2)cc1N | 139 to 140 °C
63 | C=C1CC2C(CCC3(C)C(=O)CCC23)C2(C)C=CC(=O)C=C12 (stereo not given) | 190 °C
64 | O=Cc1ccc(I)o1 | 127 °C
65 | O=C(O)C(C(=O)O)c1ccsc1 | 139 °C
66 | O=C(Cl)c1cc(-c2ccco2)on1 | 74 to 76 °C
67 | COC(=O)C=Cc1ccc(C=CC(=O)OC)c([N+](=O)[O-])c1 | 166 °C
68 | CC12CCC(/C(=C3/OC(C4C(=O)C5(C)CCC4C5(C)C)C3=O)C1=O)C2(C)C (stereo not given) | 196 °C
69 | CC12CC1(C)C(=O)N(c1cc(Cl)cc(Cl)c1)C2=O (stereo not given) | 166 °C
70 | c1ccc(OCc2nnc3n2NC(c2ccco2)S3)cc1 (stereo not given) | 102 °C
71 | CCCCCCCCCC(C)C | -47 °C
72 | O=C(CC(=O)c1ccccc1O)c1ccccc1 | 120 °C
73 | CCOC(=O)c1c(-c2ccc(Cl)cc2)csc1N | 111 to 112 °C
74 | N#Cc1ccc(C=Cc2ccccc2C=O)c([N+](=O)[O-])c1 | 210 °C
75 | CCOC(=O)c1c(SC)nn(-c2ccc([N+](=O)[O-])cc2)c1N | 181 °C

Row | Compound | melting point
76 | Cc1nc(-c2ccc(Br)cc2)no1 | 98 to 99 °C
77 | COc1ccc(OC2OC(CO)C(O)C(O)C2O)cc1 (stereo not given) | 159 °C
78 | O=C(O)c1cc(Br)ccc1O | 170 °C
79 | OCc1ccc(N2CCOCC2)nc1 | 74 to 76 °C
80 | O=[N+]([O-])c1ccc(N/N=C2\Cc3ccccc32)c([N+](=O)[O-])c1 | 203 °C
81 | O=C(O)c1ccc(O)c([N+](=O)[O-])c1 | 230 °C
82 | NC(=O)c1sc2nnccc2c1N | 310 to 320 °C
83 | Nc1c([N+](=O)[O-])cccc1[N+](=O)[O-] | 142 °C
84 | O=C(NC(CO)C(=O)OCc1ccccc1)OCc1ccccc1 (stereo not given) | 83 °C
85 | CC(O)Cn1c(=O)c2c(ncn2C)n(C)c1=O (stereo not given) | 141 °C
86 | OC(C(F)(F)F)(C(F)(F)F)C(O)(C(F)(F)F)C(F)(F)F | 18 to 20 °C
87 | COC(=O)CCC(C)C1CCC2C3C(OC(C)=O)C(Br)C4CCCCC4(C)C3CCC12C (stereo not given) | 158 to 159 °C
88 | COC(=O)c1cccc(OC)c1OC | 46 to 49 °C
89 | CCOC(=O)c1c(NC(=O)C(Cl)Cl)sc2c1CCCC2 | 120 to 122 °C
90 | CC1CC(=O)c2c(F)c(F)cc3c(=O)c(C(=O)O)cn1c23 (stereo not given) | 323 to 325 °C
91 | O=c1[nH]c(=O)n(C2CC(O)C(CO)O2)cc1C(F)(F)F (stereo not given) | 188 °C
92 | CCC(O)CO (stereo not given) | -50 °C
93 | NNC(=O)c1ccc(Cl)c(Br)c1 | 165 to 168 °C
94 | CC(C)COC(=O)c1ccccc1O | 5.9 °C
95 | c1ccc(CC2=NCCN2)cc1 | 174 °C
96 | CN(C)[Si](C)(N(C)C)N(C)C | -11 °C
97 | Cc1cc(=O)oc2cc(OCC(=O)Cl)ccc12 | 129 °C
98 | O=C(OCC(=O)N1CCOCC1)c1ccccc1 | 104 °C
99 | O=C(NC(c1ccccc1)C(O)C(=O)O)c1ccccc1 (stereo not given) | 170 °C
100 | C1CN2CCN3CCN4CCN1C2C43 (stereo not given) | 30 °C

Row | Compound | melting point
101 | CCOC(=O)C1=C(C)NC(C)=C(C(=O)OCC)C1 | 180 °C
102 | CC12CC(O)C3C(CCC4CC(O)CCC43C)C1CCC2=O (stereo not given) | 235 °C
103 | O=Cc1c(-c2ccccc2)nn(-c2ccccc2)c1Cl | 109 to 110 °C
104 | N#Cc1ccc2nonc2c1 | 86 to 88 °C
105 | CCCCCCC(O)C1C2=C(CC(C(O)C3CC=CC(=O)O3)CC3=C(C(=O)OC3=O)C1O)C(O)OC2=O (stereo not given) | 214 °C
106 | Cc1noc(-c2ccccc2)c1CBr | 72 °C
107 | O=C(O)CCc1cc(I)c(Oc2ccc(O)c(I)c2)c(I)c1 | 200 °C
108 | O=c1ccnc2n(-c3ccccc3)[nH]cc1-2 | 167 °C
109 | CCCC(=O)N(CSP(=S)(OC)OC)c1ccccc1Cl | 42 °C
110 | COc1cc(C)c(Cl)cc1S(=O)(=O)Cl | 127 °C
111 | COc1ccccc1NC(=O)CC(C)=O | 86 °C
112 | CC(C)OC(=O)C1(S(=O)(=O)c2ccc([N+](=O)[O-])cc2)CC1 | 123 °C
113 | BrCc1ccc(-c2csnn2)cc1 | 135 to 137 °C
114 | CC(=O)c1sc(-c2cccs2)nc1C | 121 to 122 °C
115 | COc1ccc(C=CC(=O)c2cccc(C(=O)C=Cc3ccc(OC)c(O)c3)c2)cc1O | > 200 °C
116 | Cc1ccc2nc(O)cc(C)c2c1 | 240 °C
117 | COc1cc2ccc(=O)oc2cc1OC | 146 °C
118 | NC(=S)N1CCCCC1 | 127 to 129 °C
119 | C=Nc1cnn(-c2ncnc3c2cnn3C)c1C=COCC | 155 °C
120 | CC(C)(C)OC(=O)N1CC(=O)CC1C(=O)O (stereo not given) | 155 to 156 °C
121 | N#Cc1ccc(-n2ccnc2)cc1 | 151 to 153 °C
122 | OCc1c(F)ccc(F)c1F | 46 °C
123 | CCF | -143 °C
124 | O=C(O)[C@@H]1CCN1 | 206 to 207 °C
125 | CCCc1nn(C)c2c(=O)nc(-c3cc(S(=O)(=O)N4CCN(C)CC4)ccc3OCC)[nH]c12 | 190 °C
